The record followed here is ChEMBL document CHEMBL1201862, “PubChem BioAssay data set” (2004).

A short description of one test: cells. Type of test: functional, cell-based.
Test [1] in a line: loss of viability in HepG2 cells – cell-based, CellTiter-Glo, cherry-picked, cytotoxicity control for Shn3 inhibitor project, dose response (AID 624134). Type of test: functional. For orientation: Cellular ATP, detected with luciferase, serves as a proxy for viable cell number.
The target of test [2] is T1, Mannose-6-phosphate isomerase (Homo sapiens, UniProt P34949).
T1 sequence (P34949 whole entry): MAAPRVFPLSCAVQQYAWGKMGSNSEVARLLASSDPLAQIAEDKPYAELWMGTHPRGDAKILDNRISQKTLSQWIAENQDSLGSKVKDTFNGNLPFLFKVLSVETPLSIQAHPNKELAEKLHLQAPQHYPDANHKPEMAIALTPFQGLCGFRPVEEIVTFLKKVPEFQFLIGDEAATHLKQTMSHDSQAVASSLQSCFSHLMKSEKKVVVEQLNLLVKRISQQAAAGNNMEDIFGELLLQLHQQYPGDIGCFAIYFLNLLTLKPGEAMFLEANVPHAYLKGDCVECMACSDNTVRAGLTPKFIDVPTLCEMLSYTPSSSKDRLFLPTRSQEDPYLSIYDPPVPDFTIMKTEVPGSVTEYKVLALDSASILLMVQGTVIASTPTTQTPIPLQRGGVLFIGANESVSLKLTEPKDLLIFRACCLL
The test can be described thus: MPI inhibition at elevated mannose 6-phosphate – biochemical, fluorescence intensity, high mannose 6-phosphate, primary screen (AID 1220).

Calls of active or inactive are those of the source. Bounds are passed on as bounds.
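For EC50 in this document: proteasome chymotrypsin-like activity measured in U2OS cells; potency is for inhibition of proteasome activity.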

As a reminder, the EC50 is the concentration giving half of the maximal effect. Consider `CC(C)CC(=O)NC(c1cccs1)c1ccc2cccnc2c1O` (stereo not drawn), for which the EC50 in “cells” is > 350 µM (not active).
In general, AC50 refers to the midpoint of the concentration-response curve, whichever way the signal moves. As for `OC(CNCCC1C=Nc2ccccc21)Cn1c2ccc(Cl)cc2c2cc(Cl)ccc21` (stereo not drawn), the half-maximal activity concentration (AC50) in test [1] was 9.39 µM (active).
For orientation: IC50 means the concentration that gives 50% inhibition. In the case of `Cc1ccccc1-c1cc2c(nn1)-c1ccccc1C2=O`, the IC50 in test [2] is > 50 µM (not active).
